The record followed here is paper PMC8550792, “Evolution of kinase polypharmacology across HSP90 drug discovery” (Cell Chemical Biology, 2021).

Several values for one entry are separate records, joined by “and”; a condition that tells them apart may be missing. Identical values can stand only once.

Format in all cases: biochemical
Assay [1] concerns the target T1, 382 unique human kinases (Homo sapiens, UniProt Q76MJ5).
T1 construct: purchased Reaction Biology (HotSpot contract assay)
The experiment in a line: biochemical. As to conditions: ERN2/IRE2, 10 uM; for remaining activity at 10 µM: read-out: % Enzyme Activity (relative to DMSO controls).

The target in assay [2] is T2, 382 unique human kinases (Homo sapiens, UniProt P23443).
T2 construct: purchased Reaction Biology (HotSpot contract assay)
The assay is described as follows: biochemical. To be noted: kinase p70S6K/RPS6KB1, compound 10 uM; for remaining activity at 10 µM: read-out: % Enzyme Activity (relative to DMSO controls).

Assay [3] concerns the target T3, 382 unique human kinases (Homo sapiens, UniProt Q06187, E41K).
T3 construct: purchased Reaction Biology (HotSpot contract assay)
The experiment in a line: biochemical. To be noted: BTK (E41K), 10 uM; for remaining activity at 10 µM: read-out: % Enzyme Activity (relative to DMSO controls).

Assay [4] addresses T4, 382 unique human kinases (Homo sapiens, UniProt P08581, T1173I).
T4 construct: purchased Reaction Biology (HotSpot contract assay)
The assay is described as follows: biochemical. To be noted: c-MET (T1173I), compound at 10 uM, duplicate values; for remaining activity at 10 µM: read-out: % Enzyme Activity (relative to DMSO controls).

For assay [5], the target named is T5, 382 unique human kinases (Homo sapiens, UniProt Q16816).
T5 construct: purchased Reaction Biology (HotSpot contract assay)
The experiment in a line: biochemical. As to conditions: kinase PHKg1, compound 10 uM; for remaining activity at 10 µM: read-out: % Enzyme Activity (relative to DMSO controls).

For assay [6], the target named is T6, 382 unique human kinases (Homo sapiens, UniProt Q96GD4).
T6 construct: purchased Reaction Biology (HotSpot contract assay)
The experiment in a line: biochemical. To be noted: kinase Aurora B, compound 10 uM; for remaining activity at 10 µM: read-out: % Enzyme Activity (relative to DMSO controls).

Assay [7] deals with T7, 382 unique human kinases (Homo sapiens, UniProt P37173).
T7 construct: purchased Reaction Biology (HotSpot contract assay)
The experiment in a line: biochemical. As to conditions: kinase TGFBR2, compound 10 uM; for remaining activity at 10 µM: read-out: % Enzyme Activity (relative to DMSO controls).

In assay [8] the target is T8, 382 unique human kinases (Homo sapiens, UniProt Q86V86).
T8 construct: purchased Reaction Biology (HotSpot contract assay)
The experiment in a line: biochemical. As to conditions: PIM3, [ATP] 20 µM.

Assay [9] concerns the target T9, 382 unique human kinases (Homo sapiens, UniProt P00533, DEL747-749).
T9 construct: purchased Reaction Biology (HotSpot contract assay)
The experiment in a line: biochemical. To be noted: EGFR (d747-749), 10 uM; for remaining activity at 10 µM: read-out: % Enzyme Activity (relative to DMSO controls).

Assay [10] has as its target T10, 382 unique human kinases (Homo sapiens, UniProt Q8IYT8).
T10 construct: purchased Reaction Biology (HotSpot contract assay)
T10 sequence (Q8IYT8 1-1036): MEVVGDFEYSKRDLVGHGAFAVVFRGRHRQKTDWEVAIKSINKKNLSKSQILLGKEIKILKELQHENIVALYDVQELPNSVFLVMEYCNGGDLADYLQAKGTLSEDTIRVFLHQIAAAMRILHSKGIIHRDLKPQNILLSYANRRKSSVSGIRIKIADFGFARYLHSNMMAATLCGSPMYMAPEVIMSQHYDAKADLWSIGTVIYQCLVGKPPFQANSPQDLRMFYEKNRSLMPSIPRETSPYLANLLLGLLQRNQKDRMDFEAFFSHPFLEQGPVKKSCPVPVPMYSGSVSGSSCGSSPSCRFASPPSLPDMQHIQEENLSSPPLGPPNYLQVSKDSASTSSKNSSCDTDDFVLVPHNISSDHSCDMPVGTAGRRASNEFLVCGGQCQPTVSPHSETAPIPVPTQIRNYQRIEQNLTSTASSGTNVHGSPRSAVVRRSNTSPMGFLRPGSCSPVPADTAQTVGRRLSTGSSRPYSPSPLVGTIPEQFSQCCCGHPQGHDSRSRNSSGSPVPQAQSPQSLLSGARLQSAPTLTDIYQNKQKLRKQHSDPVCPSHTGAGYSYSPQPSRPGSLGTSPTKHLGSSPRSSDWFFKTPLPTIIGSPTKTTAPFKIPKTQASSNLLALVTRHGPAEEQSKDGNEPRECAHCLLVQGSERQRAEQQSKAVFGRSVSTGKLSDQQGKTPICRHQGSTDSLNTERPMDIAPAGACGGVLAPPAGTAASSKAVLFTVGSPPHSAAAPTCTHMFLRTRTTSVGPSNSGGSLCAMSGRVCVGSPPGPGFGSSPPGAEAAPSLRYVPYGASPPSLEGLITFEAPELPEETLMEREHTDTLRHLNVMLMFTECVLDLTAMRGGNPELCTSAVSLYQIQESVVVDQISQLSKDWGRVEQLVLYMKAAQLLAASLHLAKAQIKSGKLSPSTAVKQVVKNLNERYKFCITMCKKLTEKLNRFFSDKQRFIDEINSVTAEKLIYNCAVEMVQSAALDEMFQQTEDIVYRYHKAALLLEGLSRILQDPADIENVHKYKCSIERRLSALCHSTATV
The experiment in a line: biochemical. As to conditions: ULK2, 10 uM; for remaining activity at 10 µM: read-out: % Enzyme Activity (relative to DMSO controls).

The target of assay [11] is T11, 382 unique human kinases (Homo sapiens, UniProt Q5S007, R1441C).
T11 construct: purchased Reaction Biology (HotSpot contract assay)
The assay is described as follows: biochemical. As to conditions: LRRK2 (R1441C), [ATP] 50 µM, compound 10 uM; for remaining activity at 10 µM: read-out: % Enzyme Activity (relative to DMSO controls).

A further assay concerns the target T12, PDK4/PDKH4 (Homo sapiens, UniProt Q16654).
T12 construct: purchased Reaction Biology (HotSpot contract assay)
The assay is described as follows: HotSpot in vitro kinase radiometric assay. As to conditions: for inhibition at 10 µM: read-out: % inhibition at 10 uM: PDK4, Fig 6C median ± standard deviation (n = 2). A digest of the protocol:
(§1)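 Radiometric filter-binding read-out of 32P/33P-labelled phosphoproduct captured on filter paper. Reactions contain kinase, substrate, cofactors and ɣ-labelled ATP plus test compound; no modified substrate or coupling enzyme used.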

For another assay, the target named is T13, BLK (Homo sapiens, UniProt P51451).
T13 construct: purchased Reaction Biology (HotSpot contract assay)
The experiment in a line: HotSpot in vitro kinase radiometric assay. To be noted: for inhibition at 10 µM: read-out: % inhibition at 10 uM: BLK, Fig 6C median ± standard deviation (n = 2). The method, boiled down:
as §1

In another assay the target is T14, c-Src (Homo sapiens, UniProt P12931).
T14 construct: purchased Reaction Biology (HotSpot contract assay)
The experiment in a line: HotSpot in vitro kinase radiometric assay. To be noted: for inhibition at 10 µM: read-out: % inhibition at 10 uM: SRC, Fig 6C median ± standard deviation (n = 2). The method, boiled down: as §1

In the next assay the target is T15, TRKC (Homo sapiens, UniProt Q16288).
T15 construct: purchased Reaction Biology (HotSpot contract assay)
The experiment in a line: HotSpot in vitro kinase radiometric assay. As to conditions: for inhibition at 10 µM: read-out: % inhibition at 10 uM: TRKC, Fig 6C median ± standard deviation (n = 2).

The mark [12] stands for this setting: compound 10 uM, read-out: % Enzyme Activity (relative to DMSO controls).

T5 sequence (Q16816 whole entry): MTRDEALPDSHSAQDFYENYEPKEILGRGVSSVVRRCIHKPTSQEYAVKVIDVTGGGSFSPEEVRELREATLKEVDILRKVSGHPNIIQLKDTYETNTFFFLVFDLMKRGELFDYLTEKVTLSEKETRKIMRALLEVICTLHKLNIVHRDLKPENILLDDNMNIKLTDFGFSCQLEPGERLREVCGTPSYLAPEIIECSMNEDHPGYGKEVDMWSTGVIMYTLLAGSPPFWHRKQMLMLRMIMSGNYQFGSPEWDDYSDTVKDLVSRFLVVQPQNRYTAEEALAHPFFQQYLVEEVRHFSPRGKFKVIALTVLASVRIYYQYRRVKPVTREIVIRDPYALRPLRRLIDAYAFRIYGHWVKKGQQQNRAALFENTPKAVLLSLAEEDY
T15 sequence (Q16288 32-839): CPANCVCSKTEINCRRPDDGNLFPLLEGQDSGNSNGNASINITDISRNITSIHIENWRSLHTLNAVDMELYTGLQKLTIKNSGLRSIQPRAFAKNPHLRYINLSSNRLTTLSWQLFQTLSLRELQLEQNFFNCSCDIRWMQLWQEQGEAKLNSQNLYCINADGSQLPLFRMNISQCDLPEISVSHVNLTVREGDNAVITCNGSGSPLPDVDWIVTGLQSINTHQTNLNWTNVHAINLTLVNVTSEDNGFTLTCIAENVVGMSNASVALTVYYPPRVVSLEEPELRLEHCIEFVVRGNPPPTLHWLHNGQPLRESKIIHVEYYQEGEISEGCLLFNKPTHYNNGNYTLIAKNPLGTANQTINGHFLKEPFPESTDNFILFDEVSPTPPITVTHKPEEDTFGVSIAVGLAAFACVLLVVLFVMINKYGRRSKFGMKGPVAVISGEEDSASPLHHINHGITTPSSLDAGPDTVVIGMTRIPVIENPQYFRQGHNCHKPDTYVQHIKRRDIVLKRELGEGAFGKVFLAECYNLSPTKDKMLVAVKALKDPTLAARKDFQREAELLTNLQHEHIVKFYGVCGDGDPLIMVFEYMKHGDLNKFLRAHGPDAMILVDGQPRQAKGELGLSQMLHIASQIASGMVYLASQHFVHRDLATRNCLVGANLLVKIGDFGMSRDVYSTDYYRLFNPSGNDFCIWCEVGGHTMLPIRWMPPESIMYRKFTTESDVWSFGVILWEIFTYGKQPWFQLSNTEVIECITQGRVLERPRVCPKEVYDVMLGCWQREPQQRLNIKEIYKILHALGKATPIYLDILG
T13 sequence (P51451 whole entry): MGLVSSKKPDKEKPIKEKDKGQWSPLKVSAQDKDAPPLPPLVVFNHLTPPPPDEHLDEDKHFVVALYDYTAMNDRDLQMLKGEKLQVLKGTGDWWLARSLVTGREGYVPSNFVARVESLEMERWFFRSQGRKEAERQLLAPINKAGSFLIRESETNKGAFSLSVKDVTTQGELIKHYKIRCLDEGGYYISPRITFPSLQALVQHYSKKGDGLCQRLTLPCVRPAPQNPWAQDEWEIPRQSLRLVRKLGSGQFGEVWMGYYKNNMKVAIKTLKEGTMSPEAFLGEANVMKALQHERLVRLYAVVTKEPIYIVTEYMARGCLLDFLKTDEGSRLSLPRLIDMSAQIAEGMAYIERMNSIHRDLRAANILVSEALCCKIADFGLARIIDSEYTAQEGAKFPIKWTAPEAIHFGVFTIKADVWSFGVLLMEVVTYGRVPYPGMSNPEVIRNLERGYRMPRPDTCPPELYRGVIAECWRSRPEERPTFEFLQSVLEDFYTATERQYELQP
T12 sequence (Q16654 whole entry): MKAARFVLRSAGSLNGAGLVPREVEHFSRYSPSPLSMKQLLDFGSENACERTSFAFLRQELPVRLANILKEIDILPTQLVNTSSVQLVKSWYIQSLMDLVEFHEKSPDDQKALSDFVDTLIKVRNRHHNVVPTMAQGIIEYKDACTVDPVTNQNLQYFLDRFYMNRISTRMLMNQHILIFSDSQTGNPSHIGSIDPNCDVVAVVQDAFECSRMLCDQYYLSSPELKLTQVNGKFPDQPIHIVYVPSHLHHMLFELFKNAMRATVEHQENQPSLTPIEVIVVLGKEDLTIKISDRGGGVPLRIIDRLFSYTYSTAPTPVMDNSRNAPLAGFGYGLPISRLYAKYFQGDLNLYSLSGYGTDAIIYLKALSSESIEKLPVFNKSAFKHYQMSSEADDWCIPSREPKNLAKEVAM
T2 sequence (P23443 whole entry): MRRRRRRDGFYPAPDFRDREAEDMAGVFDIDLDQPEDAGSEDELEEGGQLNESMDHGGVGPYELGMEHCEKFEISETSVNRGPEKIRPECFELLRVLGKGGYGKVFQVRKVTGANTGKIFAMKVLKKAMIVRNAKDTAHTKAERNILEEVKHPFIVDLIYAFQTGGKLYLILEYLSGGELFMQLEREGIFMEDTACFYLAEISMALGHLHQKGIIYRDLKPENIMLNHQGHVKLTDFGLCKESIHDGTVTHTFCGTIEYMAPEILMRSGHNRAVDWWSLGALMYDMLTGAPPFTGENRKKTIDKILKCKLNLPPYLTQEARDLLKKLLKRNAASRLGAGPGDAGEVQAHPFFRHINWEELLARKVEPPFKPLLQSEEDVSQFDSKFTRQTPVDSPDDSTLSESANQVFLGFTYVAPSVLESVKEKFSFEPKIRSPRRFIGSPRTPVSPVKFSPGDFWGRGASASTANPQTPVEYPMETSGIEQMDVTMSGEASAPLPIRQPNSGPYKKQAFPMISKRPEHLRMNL
T1 sequence (Q76MJ5 35-926): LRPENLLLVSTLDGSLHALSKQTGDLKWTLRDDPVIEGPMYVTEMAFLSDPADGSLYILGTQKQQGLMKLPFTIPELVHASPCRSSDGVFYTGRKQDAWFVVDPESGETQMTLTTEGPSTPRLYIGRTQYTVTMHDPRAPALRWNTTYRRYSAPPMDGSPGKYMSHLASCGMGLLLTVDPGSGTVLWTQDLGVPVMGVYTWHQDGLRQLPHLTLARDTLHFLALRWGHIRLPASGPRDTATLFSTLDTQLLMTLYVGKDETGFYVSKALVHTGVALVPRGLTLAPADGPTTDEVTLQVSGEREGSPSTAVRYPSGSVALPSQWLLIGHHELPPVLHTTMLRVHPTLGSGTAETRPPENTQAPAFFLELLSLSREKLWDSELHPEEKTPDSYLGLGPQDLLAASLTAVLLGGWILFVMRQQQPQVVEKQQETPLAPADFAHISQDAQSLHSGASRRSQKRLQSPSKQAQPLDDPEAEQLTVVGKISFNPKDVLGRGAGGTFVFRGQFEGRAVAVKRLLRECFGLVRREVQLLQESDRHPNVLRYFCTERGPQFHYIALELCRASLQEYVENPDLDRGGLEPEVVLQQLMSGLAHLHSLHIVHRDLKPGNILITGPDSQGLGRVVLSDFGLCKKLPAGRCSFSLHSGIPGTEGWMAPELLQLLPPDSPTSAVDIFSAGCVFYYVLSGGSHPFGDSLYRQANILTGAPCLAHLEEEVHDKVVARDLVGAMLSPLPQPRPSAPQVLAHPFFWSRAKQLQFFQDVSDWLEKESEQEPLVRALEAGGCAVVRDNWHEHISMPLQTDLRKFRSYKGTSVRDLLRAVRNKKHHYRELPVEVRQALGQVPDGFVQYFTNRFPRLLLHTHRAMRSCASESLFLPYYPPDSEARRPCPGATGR
T3 sequence (Q06187 whole entry E41K): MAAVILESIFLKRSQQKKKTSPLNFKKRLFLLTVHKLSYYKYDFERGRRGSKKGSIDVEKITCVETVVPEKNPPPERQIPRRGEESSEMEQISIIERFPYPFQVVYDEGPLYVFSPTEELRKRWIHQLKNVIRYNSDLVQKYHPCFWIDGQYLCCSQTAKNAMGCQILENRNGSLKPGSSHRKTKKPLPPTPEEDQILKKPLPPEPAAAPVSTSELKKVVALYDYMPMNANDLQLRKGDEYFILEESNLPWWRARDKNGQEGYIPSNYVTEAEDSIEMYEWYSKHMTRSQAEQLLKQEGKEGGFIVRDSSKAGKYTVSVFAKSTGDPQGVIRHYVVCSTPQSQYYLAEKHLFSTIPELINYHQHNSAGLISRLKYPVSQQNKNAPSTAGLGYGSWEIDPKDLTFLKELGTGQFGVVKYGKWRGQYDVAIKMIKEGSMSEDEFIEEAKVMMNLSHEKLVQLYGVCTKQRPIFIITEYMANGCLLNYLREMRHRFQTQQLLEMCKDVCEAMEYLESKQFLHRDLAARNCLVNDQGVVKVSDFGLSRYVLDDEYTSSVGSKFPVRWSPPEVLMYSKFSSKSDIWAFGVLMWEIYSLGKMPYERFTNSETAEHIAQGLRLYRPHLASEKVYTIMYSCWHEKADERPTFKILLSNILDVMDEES
T14 sequence (P12931 whole entry): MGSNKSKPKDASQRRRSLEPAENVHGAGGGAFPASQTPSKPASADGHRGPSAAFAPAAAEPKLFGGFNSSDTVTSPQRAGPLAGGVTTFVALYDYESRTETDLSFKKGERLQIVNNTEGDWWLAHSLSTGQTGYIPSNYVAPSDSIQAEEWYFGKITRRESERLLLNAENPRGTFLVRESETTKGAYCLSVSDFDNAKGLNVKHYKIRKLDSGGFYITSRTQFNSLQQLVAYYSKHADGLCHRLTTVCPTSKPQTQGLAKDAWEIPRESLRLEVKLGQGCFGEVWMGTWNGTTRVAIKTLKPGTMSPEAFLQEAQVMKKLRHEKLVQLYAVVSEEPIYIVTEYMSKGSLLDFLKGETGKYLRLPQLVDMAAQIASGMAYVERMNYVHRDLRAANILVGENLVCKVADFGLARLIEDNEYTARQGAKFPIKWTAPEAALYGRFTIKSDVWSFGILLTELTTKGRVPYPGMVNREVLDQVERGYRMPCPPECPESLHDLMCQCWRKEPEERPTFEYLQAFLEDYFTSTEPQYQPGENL

Consider `CC(C)c1cc(-c2n[nH]c(=O)n2-c2ccc3c(ccn3C)c2)c(O)cc1O` [Ganetespib (STA9090)], for which the remaining activity at 10 µM on 382 unique human kinases [1] worked out at 66.7%; on 382 unique human kinases [2] it was 91.3%; at 382 unique human kinases [3] it was 65.4%; on 382 unique human kinases [4] it was 102%; at 382 unique human kinases [5] it was 88.5%; on 382 unique human kinases [6] it was 83.6%. Besides, the remaining activity at 10 µM at 382 unique human kinases [7] is 92.9%.
As for `CC(C)c1cc(-c2n[nH]c(=O)n2-c2ccc3c(ccn3C)c2)c(O)cc1O` [Ganetespib], the remaining activity at 1 µM at 382 unique human kinases [8] (compound 1 uM, read-out: % Enzyme Activity (relative to DMSO controls)) came to 61.1%. In addition, the remaining activity at 10 µM at 382 unique human kinases [8] (setting [12]) is 14.3%; at 382 unique human kinases [9] it was 96.5%; on 382 unique human kinases [10] it was 107%; on 382 unique human kinases [11], 50.7%.
For `CCNC(=O)c1noc(-c2cc(C(C)C)c(O)cc2O)c1-c1ccc(CN2CCOCC2)cc1` [Luminespib (AUY-922)], the “% Enzyme Activity (relative to DMSO controls)” value was found to be 105.69% at 382 unique human kinases [1]; 107.14% at 382 unique human kinases [2]; 96.25% on 382 unique human kinases [3]; 114.35% on 382 unique human kinases [4]; 96.94% on 382 unique human kinases [5]; 100.09% on 382 unique human kinases [6]. Besides, the “% Enzyme Activity (relative to DMSO controls)” value on 382 unique human kinases [7] came to 124.56%. For the same molecule, the remaining activity at 10 µM on 382 unique human kinases [1] stood at 108%; on 382 unique human kinases [2], 107%; at 382 unique human kinases [3] it was 96.8%; on 382 unique human kinases [4], 118%; at 382 unique human kinases [5], 98.2%; on 382 unique human kinases [6], 104%. For the same molecule, the remaining activity at 10 µM at 382 unique human kinases [7] worked out at 129%.
The inhibition is the share of the control response that was lost under treatment. Take `CCNC(=O)c1noc(-c2cc(C(C)C)c(O)cc2O)c1-c1ccc(CN2CCOCC2)cc1` [Luminespib]: the inhibition at 10 µM came out at 71 ± 2% on PDK4/PDKH4, 62 ± 1% on BLK, 65 ± 2% at c-Src and 4 ± 2% on TRKC. The “% Enzyme Activity (relative to DMSO controls)” value is reported as 94.11% at 382 unique human kinases [8] (compound 10 uM), 98.26% at 382 unique human kinases [9], 104.48% on 382 unique human kinases [10] and 88.51% on 382 unique human kinases [11]. In addition, the remaining activity at 10 µM on 382 unique human kinases [8] (setting [12]) turned out to be 97.5%; on 382 unique human kinases [9], 99.3%; at 382 unique human kinases [10] it was 107%; at 382 unique human kinases [11] it was 88.8%.
Take `CCNC(=O)c1noc(-c2cc(Cl)c(O)cc2O)c1-c1ccc(OC)cc1` [VER-50589]: the “% Enzyme Activity (relative to DMSO controls)” value is -0.13% and 4.42% at PDK4/PDKH4 (PDK4/PDKH4, 10uM, ATP 30 uM, Data 1, Data 2); 99.82% on BLK (BLK, 10uM, ATP 10 uM, Data 1, Data 2); 103.77% and 68.69% on c-Src (c-Src, 10uM, ATP 15 uM, Data 1, Data 2); 86.46% on TRKC (TRKC, 10uM, ATP 100 uM, Data 1, Data 2). Also, the inhibition at 10 µM at PDK4/PDKH4 stood at 98 ± 3%; on BLK, 3 ± 4%; at c-Src, 14 ± 25%; at TRKC, 10 ± 5%. The remaining activity at 10 µM on BLK (BLK, 10uM, ATP 10 uM, Data 1, Data 2, read-out: % Enzyme Activity (relative to DMSO controls)) turned out to be 94%; at TRKC (TRKC, 10uM, ATP 100 uM, Data 1, Data 2, read-out: % Enzyme Activity (relative to DMSO controls)), 94.2%.
